Activity calls are given as the source filed them.
Tests used:
[1] = cells
[2] = biological target: Major prion protein (Homo sapiens, UniProt P04156); assay type: functional, cell-based
[3] = inhibitors of intracellular T. cruzi replication, confirmation, NIH3T3 host cells, beta-gal luminescence (AID 2044); assay type: functional, cell-based;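 also: intracellular parasites grown in NIH/3T3 mouse fibroblasts as host cells; luminescent beta-galactosidase reporter signal from transgenic T. cruzi replicating inside host cells; inhibitors lower the luminescence signal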
[4] = biological target: T1, Protein skinhead-1 (Caenorhabditis elegans, UniProt P34707); assay type: functional
T1 sequence (P34707 whole entry): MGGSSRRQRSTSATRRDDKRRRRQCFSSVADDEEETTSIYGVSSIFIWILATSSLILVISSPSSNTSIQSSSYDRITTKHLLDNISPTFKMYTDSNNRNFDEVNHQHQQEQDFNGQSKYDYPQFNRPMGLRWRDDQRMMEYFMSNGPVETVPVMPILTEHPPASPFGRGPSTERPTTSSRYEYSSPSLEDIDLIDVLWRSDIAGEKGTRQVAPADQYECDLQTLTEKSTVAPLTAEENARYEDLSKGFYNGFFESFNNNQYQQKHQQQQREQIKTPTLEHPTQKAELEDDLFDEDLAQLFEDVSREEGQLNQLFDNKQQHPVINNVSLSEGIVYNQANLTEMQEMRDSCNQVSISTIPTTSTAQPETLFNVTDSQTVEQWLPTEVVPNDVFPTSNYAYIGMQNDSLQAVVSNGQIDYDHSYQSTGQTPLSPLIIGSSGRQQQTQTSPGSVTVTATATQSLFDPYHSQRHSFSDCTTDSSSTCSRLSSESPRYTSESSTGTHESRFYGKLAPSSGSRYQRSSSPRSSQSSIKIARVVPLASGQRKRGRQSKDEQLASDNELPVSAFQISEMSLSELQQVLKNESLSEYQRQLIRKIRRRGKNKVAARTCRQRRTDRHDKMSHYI

[5] = cytotoxicity toward NIH3T3 fibroblasts, dose response, counter-screen, cell-based, ATP luminescence, mouse fibroblasts (AID 2010); assay type: functional;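 also: cells exposed to compound for about 90 hours before reading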
[6] = biological target: T2, Adenosylmethionine-8-amino-7-oxononanoate aminotransferase (Mycobacterium tuberculosis, UniProt P9WQ81); test: Mycobacterium tuberculosis BioA enzyme inhibitor Measured in Biochemical System Using Plate Reader - 2163-02_Inhibitor_Dose_CherryPick_Activity.; assay type: functional, Mycobacterium tuberculosis UT205
T2 sequence (P9WQ81 whole entry): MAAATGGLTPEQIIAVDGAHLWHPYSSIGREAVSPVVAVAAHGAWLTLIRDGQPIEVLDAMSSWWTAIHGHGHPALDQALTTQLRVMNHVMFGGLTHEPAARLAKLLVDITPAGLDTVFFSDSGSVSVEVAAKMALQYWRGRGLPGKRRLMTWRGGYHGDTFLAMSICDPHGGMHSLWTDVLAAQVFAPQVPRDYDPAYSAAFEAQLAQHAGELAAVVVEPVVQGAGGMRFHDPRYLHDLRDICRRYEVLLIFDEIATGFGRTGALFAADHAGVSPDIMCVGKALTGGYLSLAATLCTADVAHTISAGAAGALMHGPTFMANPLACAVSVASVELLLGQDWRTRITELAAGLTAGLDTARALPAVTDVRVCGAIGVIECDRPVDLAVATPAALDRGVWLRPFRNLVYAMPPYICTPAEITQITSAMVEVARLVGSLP

[7] = biological target: T3, Long-chain-fatty-acid--AMP ligase FadD28 (Mycobacterium tuberculosis, UniProt P9WQ59); test: Fluorescence polarization aasay to screen for inhibitors that compete for the binding of FadD28 to a bisubstrate Measured in Biochemical System Using Plate Reader - 2147-01_Inhibitor_Dose_CherryPick_Activity.; assay type: functional, Mycobacterium tuberculosis H37Rv
T3 sequence (P9WQ59 whole entry): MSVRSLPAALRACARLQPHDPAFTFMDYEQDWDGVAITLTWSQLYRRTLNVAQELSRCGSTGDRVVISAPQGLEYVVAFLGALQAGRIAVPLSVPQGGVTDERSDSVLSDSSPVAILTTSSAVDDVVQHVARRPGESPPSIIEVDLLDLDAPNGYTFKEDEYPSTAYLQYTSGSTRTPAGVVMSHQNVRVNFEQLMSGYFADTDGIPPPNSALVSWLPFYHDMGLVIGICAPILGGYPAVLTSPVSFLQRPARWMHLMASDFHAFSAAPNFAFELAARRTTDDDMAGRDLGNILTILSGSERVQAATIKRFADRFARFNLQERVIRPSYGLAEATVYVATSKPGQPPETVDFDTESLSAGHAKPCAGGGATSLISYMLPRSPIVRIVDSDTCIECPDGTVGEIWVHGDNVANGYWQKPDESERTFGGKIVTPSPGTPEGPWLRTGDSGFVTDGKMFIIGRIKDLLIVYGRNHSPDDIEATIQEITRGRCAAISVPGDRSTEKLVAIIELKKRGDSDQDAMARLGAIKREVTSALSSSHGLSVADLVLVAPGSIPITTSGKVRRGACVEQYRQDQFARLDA

[8] = cells; assay type: functional
[9] = Vero E6 cell cytotoxicity, dose response, cytotoxicity control for non-replicating M. tuberculosis project, secondary assay (AID 492998); assay type: functional, VeroE6; details: Vero C1008
[10] = THP-1 cell cytotoxicity, dose response, cytotoxicity control for non-replicating M. tuberculosis project (AID 489025); assay type: functional
[11] = biological target: SUMO-activating enzyme (Homo sapiens, UniProt Q9UBT2); test: SUMOylation inhibitor hit validation, confirmation, SUMOylation inhibitor project, biochemical, AlphaScreen (AID 2018); assay type: functional
[12] = biological target: Prothrombin (Homo sapiens, UniProt P00734); test: Thrombin 1536 HTS Dose Response Confirmation. [Related pubchem assays: 1046 (Thrombin 1536 HTS; hits were confirmed in this assay)]; assay type: functional
[13] = biological target: Genome polyprotein (dengue virus type 2, UniProt P29990); test: Dengue-2 NS5 methyltransferase inhibitors, primary screen, biochemical, confirmation dose response (AID 588689); assay type: functional
[14] = HepG2 cell cytotoxicity, dose response, cytotoxicity control for non-replicating M. tuberculosis project (AID 489018); assay type: functional; details: Mycobacterium tuberculosis
[15] = test system: BJ; test: cells; assay type: functional, cell-based; details: Homo sapiens
[16] = cells; assay type: functional, cell-based
[17] = cells; assay type: functional, cell-based; remark: listed apart in the source
[18] = test system: BJ; test: cytotoxicity toward BJ-TERT-LT-ST fibroblasts, dose response, cell-based, RAS-independent, luminescence (AID 1935); assay type: functional; details: Homo sapiens;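 also: BJ fibroblasts immortalized with TERT plus LT and ST oncogenes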
[19] = test system: BJ; test: cytotoxicity toward BJ-TERT fibroblasts, dose response, cell-based, RAS-independent, luminescence (AID 1933); assay type: functional; details: Homo sapiens
[20] = cytotoxicity toward DRD oncogenic fibroblasts, dose response, cell-based, non-viral oncogenic, luminescence (AID 1934); assay type: functional; details: Homo sapiens
[21] = test system: INS1; test: beta cell apoptosis inhibitors, cytokine rescue, dose response, luminescence, retest (AID 449756); assay type: functional, cell-based; details: Rattus norvegicus;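 also: cell death triggered by IL-1 beta plus TNF-alpha plus IFN-gamma mixture; protective hits raise ATP signal compared with cytokine alone wells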
[22] = biological target: T4, Calpain-2 catalytic subunit (Sus scrofa, UniProt P43367); test: pig calpain II inhibitor potency, dose response, biochemical, fluorogenic peptide substrate (AID 1420); assay type: functional
T4 sequence (P43367 whole entry): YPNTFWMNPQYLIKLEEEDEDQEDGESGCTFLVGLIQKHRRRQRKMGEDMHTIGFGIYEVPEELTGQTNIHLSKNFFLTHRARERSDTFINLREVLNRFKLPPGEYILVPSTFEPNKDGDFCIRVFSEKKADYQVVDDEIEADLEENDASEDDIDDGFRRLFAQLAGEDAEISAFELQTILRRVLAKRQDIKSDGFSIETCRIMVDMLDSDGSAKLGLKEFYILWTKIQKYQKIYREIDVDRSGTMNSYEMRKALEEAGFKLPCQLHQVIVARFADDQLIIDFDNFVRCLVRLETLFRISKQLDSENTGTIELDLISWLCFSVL

[23] = biological target: Luciferin 4-monooxygenase (Photinus pyralis, UniProt P08659); test: firefly luciferase enzyme inhibitors, dose response, biochemical, luminescence (AID 1891)
[24] = Luminescence Cell-Based Dose Confirmation HTS to Identify Inhibitors of Platelet Dense Granule Release. [Related pubchem assays: 1663 (Primary HTS), 1678 (Summary of Project)]; assay type: functional

## Cc1ccc(-n2nc3c(S)nnc(C)c3c2C)cc1
[1]
  IC50: > 138 µM (inactive)

## O=C(NC(=S)NCCO)c1sc2ccccc2c1Cl
[2]
  IC50: 3.4 µM (active)
[1]
  IC50: > 138 µM (inactive)

## COC(=O)c1c(NC(=O)CN2CCN(Cc3ccc4c(c3)OCO4)CC2)sc(C)c1C
[3]
  EC50: 1.88 µM (active)
[4]
  IC50: > 100 µM (inactive)
[5]
  EC50: > 60 µM (not active)

## COc1ccc(C(=O)Nc2ccc(Cn3ccnc3)cc2)cc1OC
[6]
  AC50: 7.74 µM (active)

## COC(=O)c1cc(NC(=O)CN(c2ccc3c(c2)OCO3)S(C)(=O)=O)ccc1Cl
[4]
  IC50: > 100 µM (inactive)

## Cc1ccc(OCC(=O)N/N=C\c2c(C)n(C)c3ccccc23)c([N+](=O)[O-])c1
[7]
  AC50: 68 µM (active)

## Cc1ccc(NC(C)C(=O)N/N=C/c2ccc([N+](=O)[O-])s2)cc1 (stereo not given)
[8]
  IC50: 7.04 µM (active)
[3]
  EC50: 0.494 µM (active)
[9]
  CC50: 15.8 µM (active)
[10]
  CC50: 25.9 µM (active)
[5]
  EC50: > 60 µM (not active)

## COc1ccccc1-n1c(C)c(C(=O)O)c2cc(OC)c3ccccc3c21
[7]
  AC50: 60.9 µM (active)

## O=C1/C(=C/c2coc3ccc(O)cc3c2=O)SC(=S)N1c1ccccc1
[11]
  IC50: 39.4 µM (active)

## Cc1cc(NC(=O)COc2ccc3ccccc3c2Br)no1
[2]
  IC50: 1.39 µM (active)
[1]
  IC50: 133 µM (inactive)

## COC(=O)c1n[nH]c(NC(=O)C(C)(C)C)n1
[12]
  IC50: 1.43 µM (active)

## N#C/C(=C\c1ccccc1)C(=O)NNS(=O)(=O)c1cccc([N+](=O)[O-])c1
[13]
  IC50: 51.8 µM (active)

## CCc1c(C(=O)NCCc2ccc(OC)c(OC)c2)[nH]c(C)c1C(C)=O
[6]
  AC50: 3.74 µM (active)

## O=c1[nH]c(=O)n(Cc2ccccc2)c2c1C(C(F)(F)F)(C(F)(F)F)N=C(c1ccco1)N2
[12]
  IC50: 31.5 µM (active)

## Cc1ccc(-n2nc3c(=S)[nH]nc(C)c3c2C)cc1
[2]
  IC50: 0.143 µM (active)

## O=[N+]([O-])c1cccnc1N/N=C/c1ccccc1O
[14]
  CC50: 14.4 µM (active)
[15]
  EC50: 10.9 µM (active)
[8]
  IC50: 3.92 µM (active)
[16]
  EC50: > 350 µM (not active)
[9]
  CC50: 3.08 µM (active)
[17]
  EC50: 6.41 µM (active)
[10]
  CC50: 0.766 µM (active)
[18]
  EC50: 21.6 µM (active)
[19]
  EC50: 9.77 µM (active)
[20]
  EC50: 8.92 µM (active)
[21]
  AC50: 0.691 µM (active)

## Clc1ccc(Cn2nnc(-c3ccccc3)n2)cc1
[4]
  IC50: 12.6 µM (active)

## Cn1c(-c2ccc(Br)o2)nc2cc(Br)ccc21
[4]
  IC50: > 100 µM (inactive)

## Cc1cc(NC(=O)CSc2nc3cc(C(=O)NCCCOC(C)C)ccc3c(=O)n2Cc2ccco2)no1
[22]
  IC50: 16.1 µM (not active)
[11]
  IC50: 38.3 µM (active)

## O=C(COC(=O)c1cccc(S(=O)(=O)N2CCCCCC2)c1)Nc1ccccc1
[7]
  AC50: > 100 µM (inactive)

## O=C(Nc1ncc2c(n1)CC(c1ccco1)CC2=O)c1ccco1 (stereo not given)
[23]
  EC50: > 112 µM (not active)
[24]
  EC50: > 112 µM (not active)
[6]
  AC50: 6.29 µM (active)

## Cc1ccc(/C=C(\CCC(=O)O)c2nc3ccccc3s2)cc1[N+](=O)[O-]
[6]
  AC50: 0.153 µM (active)

## CCOC(=O)N1CCN(C(=O)CSCC(=O)Nc2nc(-c3ccc(Cl)s3)cs2)CC1
[12]
  IC50: 1.95 µM (active)

## C=CCOc1ccc(C(c2c(O)nc(SC)nc2O)c2c(O)nc(SC)nc2O)cc1
[13]
  IC50: 33.3 µM (active)

## COc1cc(C(C2C(=O)CC(C)(C)CC2=O)C2C(=O)CC(C)(C)CC2=O)ccc1O
[13]
  IC50: 62.3 µM (active)

## Cc1cc(C)n(-c2ccc(C(=O)Nc3ccc4c(c3)OCO4)cc2)n1
[6]
  AC50: 4.31 µM (active)

## Cc1nn(C)cc1CN(C)C(=O)c1cc(-c2ccccc2)nc2ccc(Br)cc12
[2]
  IC50: 6.12 µM (active)
[1]
  IC50: 75.1 µM (inactive)

## Cc1nn(-c2ncc(C(F)(F)F)cc2Cl)c(=O)n1-c1ccccc1
[4]
  IC50: > 100 µM (inactive)
